Source: the kinase profiling compilation of Christmann-Franck et al. (2016)
Values joined by “and” are separate entries in the source; they are usually repeats but may differ in a detail not shown here. Identical values can stand only once.

Assays:
Test in all cases: KINOMEscan competition binding
Details in all cases: compound 10.0 µM
[1] = biological target: MAPK11 (human) (UniProt Q15759)
[2] = biological target: PLK1 (human) (UniProt P53350)
[3] = biological target: CAMK1D (human) (UniProt Q8IU85)
[4] = biological target: LATS1 (human) (UniProt O95835)
[5] = system: FLT3 (human), P36888 [ITD]
[6] = biological target: PAK2 (human) (UniProt Q13177)
[7] = biological target: ROS1 (human) (UniProt P08922)
[8] = biological target: ANKK1 (human) (UniProt Q8NFD2)
[9] = biological target: EPHB3 (human) (UniProt P54753)
[10] = biological target: PTK6 (human) (UniProt Q13882)
[11] = biological target: TYRO3 (human) (UniProt Q06418)
[12] = biological target: ALK (human) (UniProt Q9UM73)
ALK (human), sequence (Q9UM73 whole entry, looked up): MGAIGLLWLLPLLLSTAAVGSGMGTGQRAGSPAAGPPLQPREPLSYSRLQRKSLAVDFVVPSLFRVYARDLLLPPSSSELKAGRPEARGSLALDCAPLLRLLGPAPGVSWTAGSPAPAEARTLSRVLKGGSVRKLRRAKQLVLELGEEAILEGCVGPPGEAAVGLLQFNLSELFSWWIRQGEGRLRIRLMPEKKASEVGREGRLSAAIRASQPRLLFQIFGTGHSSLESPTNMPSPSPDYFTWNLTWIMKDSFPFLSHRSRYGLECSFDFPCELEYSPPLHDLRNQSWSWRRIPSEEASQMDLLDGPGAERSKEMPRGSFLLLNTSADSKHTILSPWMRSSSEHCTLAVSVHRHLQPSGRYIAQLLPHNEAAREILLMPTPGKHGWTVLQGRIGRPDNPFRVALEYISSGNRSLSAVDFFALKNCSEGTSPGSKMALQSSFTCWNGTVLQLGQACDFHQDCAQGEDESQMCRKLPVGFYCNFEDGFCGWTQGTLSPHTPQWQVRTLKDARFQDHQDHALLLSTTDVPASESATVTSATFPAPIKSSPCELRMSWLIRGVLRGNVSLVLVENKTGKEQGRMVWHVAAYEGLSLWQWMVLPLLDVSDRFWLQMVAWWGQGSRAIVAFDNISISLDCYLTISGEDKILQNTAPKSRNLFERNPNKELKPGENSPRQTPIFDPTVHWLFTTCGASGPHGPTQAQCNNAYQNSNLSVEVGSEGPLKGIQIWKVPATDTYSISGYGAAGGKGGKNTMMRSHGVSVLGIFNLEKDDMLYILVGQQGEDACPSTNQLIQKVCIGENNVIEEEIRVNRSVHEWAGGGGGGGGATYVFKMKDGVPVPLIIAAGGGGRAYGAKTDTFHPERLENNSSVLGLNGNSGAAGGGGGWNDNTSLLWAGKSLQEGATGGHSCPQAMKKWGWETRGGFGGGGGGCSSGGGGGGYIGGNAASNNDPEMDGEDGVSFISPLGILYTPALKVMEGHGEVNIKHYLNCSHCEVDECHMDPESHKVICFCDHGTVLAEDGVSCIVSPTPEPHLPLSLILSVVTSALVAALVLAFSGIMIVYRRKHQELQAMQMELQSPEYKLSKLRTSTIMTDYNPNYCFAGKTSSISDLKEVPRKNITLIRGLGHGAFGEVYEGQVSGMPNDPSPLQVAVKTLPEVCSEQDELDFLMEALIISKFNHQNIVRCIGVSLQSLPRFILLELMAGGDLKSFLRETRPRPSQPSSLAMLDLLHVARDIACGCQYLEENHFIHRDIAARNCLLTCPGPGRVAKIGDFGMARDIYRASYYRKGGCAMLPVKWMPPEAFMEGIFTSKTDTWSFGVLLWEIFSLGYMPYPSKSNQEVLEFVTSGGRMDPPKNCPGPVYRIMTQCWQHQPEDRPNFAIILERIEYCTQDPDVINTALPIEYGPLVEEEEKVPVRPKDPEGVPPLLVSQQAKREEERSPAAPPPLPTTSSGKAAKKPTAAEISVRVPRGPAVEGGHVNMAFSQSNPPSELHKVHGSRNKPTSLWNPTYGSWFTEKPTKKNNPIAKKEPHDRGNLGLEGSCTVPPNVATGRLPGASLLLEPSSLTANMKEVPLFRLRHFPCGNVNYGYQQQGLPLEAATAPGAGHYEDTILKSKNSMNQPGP

[13] = biological target: PRKAA1 (human) (UniProt Q13131)
[14] = biological target: MKNK1 (human) (UniProt Q9BUB5)
MKNK1 (human), sequence (Q9BUB5 whole entry, looked up): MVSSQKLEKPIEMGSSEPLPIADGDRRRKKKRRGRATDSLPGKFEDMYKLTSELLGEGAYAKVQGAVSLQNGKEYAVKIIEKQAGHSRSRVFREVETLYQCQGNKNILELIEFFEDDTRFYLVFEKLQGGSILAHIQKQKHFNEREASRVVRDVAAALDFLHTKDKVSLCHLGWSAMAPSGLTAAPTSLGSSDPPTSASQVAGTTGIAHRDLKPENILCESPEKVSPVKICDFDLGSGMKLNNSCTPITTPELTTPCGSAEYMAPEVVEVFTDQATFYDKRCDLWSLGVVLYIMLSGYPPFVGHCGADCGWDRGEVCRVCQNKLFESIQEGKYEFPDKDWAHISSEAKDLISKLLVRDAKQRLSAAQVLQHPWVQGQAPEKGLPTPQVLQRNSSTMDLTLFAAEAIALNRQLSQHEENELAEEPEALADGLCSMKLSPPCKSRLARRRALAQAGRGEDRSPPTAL

[15] = biological target: NEK1 (human) (UniProt Q96PY6)
[16] = biological target: EPHA7 (human) (UniProt Q15375)
EPHA7 (human), sequence (Q15375 whole entry, looked up): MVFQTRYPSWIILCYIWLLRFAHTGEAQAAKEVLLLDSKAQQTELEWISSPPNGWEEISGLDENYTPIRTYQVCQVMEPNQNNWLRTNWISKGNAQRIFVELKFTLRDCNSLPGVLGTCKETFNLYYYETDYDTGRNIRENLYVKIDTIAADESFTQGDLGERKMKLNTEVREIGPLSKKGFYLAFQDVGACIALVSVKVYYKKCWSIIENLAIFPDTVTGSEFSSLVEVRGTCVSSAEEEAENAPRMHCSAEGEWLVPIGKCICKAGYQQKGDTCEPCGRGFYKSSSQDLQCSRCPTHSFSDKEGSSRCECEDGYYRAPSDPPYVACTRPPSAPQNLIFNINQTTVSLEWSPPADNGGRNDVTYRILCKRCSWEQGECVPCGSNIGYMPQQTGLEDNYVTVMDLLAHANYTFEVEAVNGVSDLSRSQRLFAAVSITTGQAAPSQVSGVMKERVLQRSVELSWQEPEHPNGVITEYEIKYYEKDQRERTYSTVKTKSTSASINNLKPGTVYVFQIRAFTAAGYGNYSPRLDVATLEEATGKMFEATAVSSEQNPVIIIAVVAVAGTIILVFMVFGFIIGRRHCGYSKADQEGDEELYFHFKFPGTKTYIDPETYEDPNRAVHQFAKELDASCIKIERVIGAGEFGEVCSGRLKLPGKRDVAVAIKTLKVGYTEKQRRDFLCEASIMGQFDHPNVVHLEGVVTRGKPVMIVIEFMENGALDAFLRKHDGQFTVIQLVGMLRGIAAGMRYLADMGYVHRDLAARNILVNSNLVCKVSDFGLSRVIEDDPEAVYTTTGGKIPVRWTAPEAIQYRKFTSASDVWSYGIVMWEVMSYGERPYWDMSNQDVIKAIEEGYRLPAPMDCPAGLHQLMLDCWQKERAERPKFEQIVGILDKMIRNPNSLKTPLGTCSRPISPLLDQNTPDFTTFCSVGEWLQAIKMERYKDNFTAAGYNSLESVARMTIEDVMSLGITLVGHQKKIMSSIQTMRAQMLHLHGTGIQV

[17] = biological target: RPS6KA5 KD1 (human) (UniProt O75582)
RPS6KA5 KD1 (human), sequence (O75582 whole entry, looked up): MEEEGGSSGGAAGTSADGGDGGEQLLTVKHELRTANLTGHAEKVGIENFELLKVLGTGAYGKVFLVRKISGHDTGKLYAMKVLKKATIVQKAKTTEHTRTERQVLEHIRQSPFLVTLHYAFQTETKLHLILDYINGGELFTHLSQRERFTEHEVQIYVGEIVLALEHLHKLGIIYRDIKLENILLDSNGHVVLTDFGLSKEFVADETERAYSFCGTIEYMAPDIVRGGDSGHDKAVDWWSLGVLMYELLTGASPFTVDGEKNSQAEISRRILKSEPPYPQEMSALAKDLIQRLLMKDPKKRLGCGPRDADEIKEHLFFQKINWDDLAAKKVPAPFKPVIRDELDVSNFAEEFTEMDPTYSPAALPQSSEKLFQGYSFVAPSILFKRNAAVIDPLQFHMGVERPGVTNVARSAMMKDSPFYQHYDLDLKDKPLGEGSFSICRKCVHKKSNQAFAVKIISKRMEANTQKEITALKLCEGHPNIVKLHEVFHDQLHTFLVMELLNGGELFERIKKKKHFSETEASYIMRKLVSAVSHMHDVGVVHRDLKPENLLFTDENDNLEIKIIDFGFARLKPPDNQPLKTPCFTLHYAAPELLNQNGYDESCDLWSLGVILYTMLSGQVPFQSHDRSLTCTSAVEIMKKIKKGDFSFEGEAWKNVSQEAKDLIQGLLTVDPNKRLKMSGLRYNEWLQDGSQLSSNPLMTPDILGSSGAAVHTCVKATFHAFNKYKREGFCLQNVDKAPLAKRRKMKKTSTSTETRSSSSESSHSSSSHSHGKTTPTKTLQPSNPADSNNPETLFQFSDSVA

[18] = biological target: FLT3 (human) (UniProt P36888)
[19] = system: FLT3 (human), P36888 [N841I]
[20] = biological target: STK38L (human) (UniProt Q9Y2H1)
[21] = biological target: KDR (human) (UniProt P35968)
[22] = biological target: MAP4K5 (human) (UniProt Q9Y4K4)
[23] = biological target: DYRK1B (human) (UniProt Q9Y463)
[24] = biological target: STK17B (human) (UniProt O94768)
[25] = biological target: CSNK2A2 (human) (UniProt P19784)
[26] = biological target: PIP4K2B (human) (UniProt P78356)
PIP4K2B (human), sequence (P78356 whole entry, looked up): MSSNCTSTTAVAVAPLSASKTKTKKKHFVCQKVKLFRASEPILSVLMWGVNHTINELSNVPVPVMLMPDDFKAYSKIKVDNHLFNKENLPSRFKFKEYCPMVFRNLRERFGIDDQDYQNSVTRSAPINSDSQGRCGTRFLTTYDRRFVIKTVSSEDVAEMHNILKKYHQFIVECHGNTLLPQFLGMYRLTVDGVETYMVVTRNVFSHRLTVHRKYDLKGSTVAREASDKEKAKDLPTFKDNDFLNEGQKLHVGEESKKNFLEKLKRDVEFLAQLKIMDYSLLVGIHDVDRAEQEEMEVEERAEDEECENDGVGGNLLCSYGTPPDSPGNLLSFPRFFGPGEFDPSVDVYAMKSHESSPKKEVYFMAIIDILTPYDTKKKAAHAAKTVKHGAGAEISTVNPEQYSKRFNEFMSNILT

[27] = biological target: MYLK2 (human) (UniProt Q9H1R3)
[28] = biological target: PRKX (human) (UniProt P51817)
[29] = biological target: MAPK13 (human) (UniProt O15264)
[30] = biological target: PRKG1 (human) (UniProt Q13976)
[31] = biological target: RPS6KA5 KD2 (human) (UniProt O75582)
RPS6KA5 KD2 (human), sequence (O75582 whole entry, looked up): as the sequence (O75582 whole entry, looked up) above

[32] = biological target: TLK2 (human) (UniProt Q86UE8)
[33] = biological target: DCLK2 (human) (UniProt Q8N568)
[34] = biological target: RIOK2 (human) (UniProt Q9BVS4)
[35] = biological target: PRKCE (human) (UniProt Q02156)
[36] = biological target: CLK4 (human) (UniProt Q9HAZ1)
[37] = biological target: HIPK1 (human) (UniProt Q86Z02)
[38] = biological target: TAOK1 (human) (UniProt Q7L7X3)
[39] = biological target: AURKB (human) (UniProt Q96GD4)
AURKB (human), sequence (Q96GD4 whole entry, looked up): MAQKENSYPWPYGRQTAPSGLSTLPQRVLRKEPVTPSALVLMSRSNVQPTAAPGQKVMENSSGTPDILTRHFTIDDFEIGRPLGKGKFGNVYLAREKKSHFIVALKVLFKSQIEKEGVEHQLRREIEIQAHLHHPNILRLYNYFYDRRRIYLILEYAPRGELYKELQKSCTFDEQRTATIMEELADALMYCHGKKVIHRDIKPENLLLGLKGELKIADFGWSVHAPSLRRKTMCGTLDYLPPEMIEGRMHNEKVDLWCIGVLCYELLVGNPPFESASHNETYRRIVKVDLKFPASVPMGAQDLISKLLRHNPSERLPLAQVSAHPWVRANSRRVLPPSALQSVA

[40] = biological target: MARK2 (human) (UniProt Q7KZI7)

MAPK11 (human), sequence (Q15759 whole entry, looked up): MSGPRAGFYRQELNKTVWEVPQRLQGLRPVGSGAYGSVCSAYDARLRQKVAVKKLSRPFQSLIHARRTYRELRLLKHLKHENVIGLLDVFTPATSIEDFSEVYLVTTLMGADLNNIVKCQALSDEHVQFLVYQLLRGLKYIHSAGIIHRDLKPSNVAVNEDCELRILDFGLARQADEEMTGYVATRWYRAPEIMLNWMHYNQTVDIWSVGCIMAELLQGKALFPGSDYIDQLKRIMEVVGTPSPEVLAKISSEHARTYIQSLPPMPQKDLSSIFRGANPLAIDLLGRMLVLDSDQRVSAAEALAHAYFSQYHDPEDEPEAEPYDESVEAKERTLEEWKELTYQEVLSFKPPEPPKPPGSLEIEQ

CCC(=O)N1CCN(c2ccc(-n3c(=O)ccc4cnc5ccc(-c6cnc7ccccc7c6)cc5c43)cc2C(F)(F)F)CC1
kinase still bound, per cent of control [1]: 53%
kinase still bound, per cent of control [2]: 85%
kinase still bound, per cent of control [3]: 88%
kinase still bound, per cent of control [4]: 100%
kinase still bound, per cent of control [5]: 29%
kinase still bound, per cent of control [6]: 100%
kinase still bound, per cent of control [7]: 71%
kinase still bound, per cent of control [8]: 93%
kinase still bound, per cent of control [9]: 85%
kinase still bound, per cent of control [10]: 51%
kinase still bound, per cent of control [11]: 31%
kinase still bound, per cent of control [12]: 80%
kinase still bound, per cent of control [13]: 91%
kinase still bound, per cent of control [14]: 44%
kinase still bound, per cent of control [15]: 89%
kinase still bound, per cent of control [16]: 98%
kinase still bound, per cent of control [17]: 100%
kinase still bound, per cent of control [18]: 16%
kinase still bound, per cent of control [19]: 8.8%
kinase still bound, per cent of control [20]: 94%
kinase still bound, per cent of control [21]: 65%
kinase still bound, per cent of control [22]: 8.1%
kinase still bound, per cent of control [23]: 87%
kinase still bound, per cent of control [24]: 67%
kinase still bound, per cent of control [25]: 11%
kinase still bound, per cent of control [26]: 100%
kinase still bound, per cent of control [27]: 40%
kinase still bound, per cent of control [28]: 83%
kinase still bound, per cent of control [29]: 39%
kinase still bound, per cent of control [30]: 86%
kinase still bound, per cent of control [31]: 100%
kinase still bound, per cent of control [32]: 100%
kinase still bound, per cent of control [33]: 100%
kinase still bound, per cent of control [34]: 24%
kinase still bound, per cent of control [35]: 86%
kinase still bound, per cent of control [36]: 49%
kinase still bound, per cent of control [37]: 63%
kinase still bound, per cent of control [38]: 58%
kinase still bound, per cent of control [39]: 82%

OCCCNc1cc(-c2ccnc(Nc3cccc(Cl)c3)n2)ccn1
kinase still bound, per cent of control [1]: 100%
kinase still bound, per cent of control [2]: 100%
kinase still bound, per cent of control [40]: 100%
kinase still bound, per cent of control [3]: 100%
kinase still bound, per cent of control [4]: 100%
kinase still bound, per cent of control [5]: 100%
kinase still bound, per cent of control [6]: 100%
kinase still bound, per cent of control [7]: 100%
kinase still bound, per cent of control [8]: 100%
kinase still bound, per cent of control [9]: 100%
kinase still bound, per cent of control [10]: 100%
kinase still bound, per cent of control [11]: 100%
kinase still bound, per cent of control [12]: 100%
kinase still bound, per cent of control [13]: 100%
kinase still bound, per cent of control [14]: 100%
kinase still bound, per cent of control [15]: 100%
kinase still bound, per cent of control [16]: 100%
kinase still bound, per cent of control [17]: 100%
kinase still bound, per cent of control [18]: 100%
kinase still bound, per cent of control [19]: 100%
kinase still bound, per cent of control [20]: 100%
kinase still bound, per cent of control [21]: 100%
kinase still bound, per cent of control [22]: 100%
kinase still bound, per cent of control [23]: 4%
kinase still bound, per cent of control [24]: 100%
kinase still bound, per cent of control [25]: 100%
kinase still bound, per cent of control [26]: 100%
kinase still bound, per cent of control [27]: 100%
kinase still bound, per cent of control [28]: 100%
kinase still bound, per cent of control [29]: 100%
kinase still bound, per cent of control [30]: 100%
kinase still bound, per cent of control [31]: 100%
kinase still bound, per cent of control [32]: 100%
kinase still bound, per cent of control [33]: 100%
kinase still bound, per cent of control [34]: 100%
kinase still bound, per cent of control [35]: 100%
kinase still bound, per cent of control [36]: 14%
kinase still bound, per cent of control [37]: 4.6%
kinase still bound, per cent of control [39]: 100%

O=C(NOC[C@H](O)CO)c1ccc(F)c(F)c1Nc1ccc(I)cc1F
kinase still bound, per cent of control [1]: 100%
kinase still bound, per cent of control [2]: 72%
kinase still bound, per cent of control [40]: 100%
kinase still bound, per cent of control [3]: 89%
kinase still bound, per cent of control [4]: 100%
kinase still bound, per cent of control [5]: 100%
kinase still bound, per cent of control [6]: 93%
kinase still bound, per cent of control [7]: 92%
kinase still bound, per cent of control [8]: 64%
kinase still bound, per cent of control [9]: 89%
kinase still bound, per cent of control [10]: 46%
kinase still bound, per cent of control [11]: 80%
kinase still bound, per cent of control [12]: 100%
kinase still bound, per cent of control [13]: 100%
kinase still bound, per cent of control [14]: 100%
kinase still bound, per cent of control [15]: 98%
kinase still bound, per cent of control [16]: 94%
kinase still bound, per cent of control [17]: 87%
kinase still bound, per cent of control [18]: 82% and 80%
kinase still bound, per cent of control [19]: 78%
kinase still bound, per cent of control [20]: 100%
kinase still bound, per cent of control [21]: 84%
kinase still bound, per cent of control [22]: 69%
kinase still bound, per cent of control [23]: 98%
kinase still bound, per cent of control [24]: 100%
kinase still bound, per cent of control [25]: 100%
kinase still bound, per cent of control [26]: 100%
kinase still bound, per cent of control [27]: 100%
kinase still bound, per cent of control [28]: 100%
kinase still bound, per cent of control [29]: 6.1%
kinase still bound, per cent of control [30]: 100%
kinase still bound, per cent of control [31]: 100%
kinase still bound, per cent of control [32]: 98%
kinase still bound, per cent of control [33]: 100%
kinase still bound, per cent of control [35]: 100%
kinase still bound, per cent of control [36]: 89%
kinase still bound, per cent of control [37]: 91%
kinase still bound, per cent of control [38]: 100%
kinase still bound, per cent of control [39]: 99%
